From patent publication US20230031406A1, “COMPOUNDS AND COMPOSITIONS FOR TREATING CONDITIONS ASSOCIATED WITH NLRP ACTIVITY” (Novartis AG, priority 2018, published 2023) come the findings set out here.

What is called IC50 is the concentration at which inhibition is half-maximal.

Molecules are shown by their SMILES.

The first assay has as its system PMA-differentiated THP-1 cells. The experiment in a line: IL-1β production in PMA-differentiated THP-1 cells stimulated with gramicidin (hTHP-1 assay containing 2% fetal bovine serum; Procedures 1 and 2). It is filed as cell-based, human. The following applies: Homo sapiens, THP-1, Table B2; 2% fetal bovine serum; class symbols; read-out: hTHP-1 IC50. The method in brief: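 IL-1β release from PMA-differentiated THP-1 macrophage-like cells was triggered by 5 μM gramicidin for 2 h after 1 h compound exposure, then measured by HTRF.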
Consider `CC(C)c1nc(C(F)(F)F)nc(C(C)C)c1NC(=O)N=S(N)(=O)c1sc(C(C)(C)O)nc1CO` (stereo not shown) [Compound 713], for which the IC50 was in the range of 1 to 5 µM.
As for `CC(C)(O)c1sc(S(N)(=O)=NC(=O)Nc2c3c(nc4c2CCC4)CCC3)cc1F` (stereo not shown) [Compound 678, 4-Fluoro-N′-((1,2,3,5,6,7-hexahydrodicyclopenta[b,e]pyridin-8-yl)carbamoyl)-5-(2-hydroxypropan-2-yl)thiophene-2-sulfonimidamide], the half-inhibitory concentration (IC50) lay in the range of 1 to 5 µM.
As to `C[C@@H]1CCc2c1nc1c(c2NC(=O)N=S(N)(=O)c2ccn(C)n2)CCC1` (single isomer, unassigned) [Compound 639b, (R) or (S)-1-Methyl-N′-(((R)-3-methyl-1,2,3,5,6,7-hexahydrodicyclopenta [b,e]pyridin-8-yl)carbamoyl)-1H-pyrazole-3-sulfonimidamide], the IC50 lay within 0.2 to 1 µM.
Regarding `Cc1c(C(F)(F)F)nc2c(c1NC(=O)N=S(N)(=O)c1ccn(C(F)F)n1)CCC2` (stereo not shown) [Compound 621, 1-(Difluoromethyl)-N′-((3-methyl-2-(trifluoromethyl)-6,7-dihydro-5H-cyclopenta[b]pyridin-4-yl)carbamoyl)-1H-pyrazole-3-sulfonimidamide], the IC50 lay in the range of 1 to 5 µM.
The same measure, in the same setting: next, `CCC1CCc2c1nc1c(c2NC(=O)N=S(N)(=O)c2ccn(C(F)F)n2)CCC1` (single isomer, unassigned) [Compound 668c, (R, R) or (R, S) or (S, R) or (S, S)-1-(Difluoromethyl)-N′-((3-ethyl-1,2,3,5,6,7-hexahydrodicyclopenta [b,e]pyridin-8-yl)carbamoyl)-1H-pyrazole-3-sulfonimidamide]: 5 to 30 µM; `Cc1c(C2CCC2)nc2c(c1NC(=O)N=S(N)(=O)c1cc(C(C)(C)O)cs1)CCC2` (stereo not shown) [Compound 658, N′-((2-cyclobutyl-3-methyl-6,7-dihydro-5H-cyclopenta[b]pyridin-4-yl)carbamoyl)-4-(2-hydroxypropan-2-yl)thiophene-2-sulfonimidamide]: 5 to 30 µM.

Staying with this assay, now noted: Homo sapiens, THP-1, Table B3; hTHP-1 assay, 2% fetal bovine serum; class symbols; read-out: IC50.
As to `Cc1c(C(F)(F)F)nc2c(c1NC(=O)N=S(N)(=O)c1cnc(C(C)(C)O)s1)CCC2C` (single isomer, unassigned) [Example 705, (S, R) or (S, S)-N′-((3,7-dimethyl-2-(trifluoromethyl)-6,7-dihydro-5H-cyclopenta[b]pyridin-4-yl)carbamoyl)-2-(2-hydroxypropan-2-yl)thiazole-5-sulfonimidamide], the half-inhibitory concentration (IC50) was in the range of 5 to 30 µM.
Same read-out and setting: in the case of `C[C@@H]1CCc2c1nc1c(c2NC(=O)N=[S@@](N)(=O)c2ccn(CF)n2)CCC1` [Example 573, (R)-1-(fluoromethyl)-N′—(((R)-3-methyl-1,2,3,5,6,7-hexahydrodicyclopenta[b,e]pyridin-8-yl)carbamoyl)-1H-pyrazole-3-sulfonimidamide] it was 1 to 5 µM; in that of `Cc1c(C2(F)CC2)nc2c(c1NC(=O)N=S(N)(=O)c1cc(C(C)(C)O)cs1)CCC2` (single isomer, unassigned) [Example 683, (R) or (S)-N′-((2-(1-fluorocyclopropyl)-3-methyl-6,7-dihydro-5H-cyclopenta[b]pyridin-4-yl)carbamoyl)-4-(2-hydroxypropan-2-yl)thiophene-2-sulfonimidamide], 1 to 5 µM.

Staying with this assay, now noted: Table B1; 2% fetal bovine serum; class symbols; read-out: Average IC50 of compounds in hTHP-1 assay: hTHP-1 IC50.
On to `CC1CCc2c1nc1c(c2NC(=O)N=S(N)(=O)c2ccn(C(F)F)n2)CCC1` (single isomer, unassigned) [Compound 184d, (S,R) or (S,S)-1-(difluoro-methyl)-N′-((3-methyl-1,2,3,5,6,7-hexahydro-dicyclopenta[b,e]pyridin-8-yl)carbamoyl)-1H-pyrazole-3-sulfonimidamide], for which the IC50 was in the range of 1 to 5 µM.
For the molecule `CC(C)(O)c1cc(F)c(S(N)(=O)=NC(=O)Nc2c3c(nc4c2CCC4(C)C)CCC3)s1` (single isomer, unassigned) [Compound 102b, (R) or (S)-N′-((3,3-dimethyl-1,2,3,5,6,7-hexahydro-dicyclopenta[b,e]pyridin-8-yl)carbamoyl)-3-fluoro-5-(2-hydroxy-propan-2-yl)thiophene-2-sulfonimidamide], the IC50 is 0.008 to 0.04 µM.

Staying with this assay, now noted: Table B2; 2% fetal bovine serum; class symbols; read-out: hTHP-1 IC50.
For the molecule `CCC1CCc2c1nc1c(c2NC(=O)N=S(N)(=O)c2cnc(C(C)(C)O)s2)CCC1` (stereo not shown) [Compound 662e], the IC50 fell in the range of 1 to 5 µM.
`CC(C)(O)c1cnc(S(N)(=O)=NC(=O)Nc2c3c(nc4c2CCC42CC2)CCC3)s1` (single isomer, unassigned) [Compound 683b, (S) or (R)-5-(2-Hydroxypropan-2-yl)-N′-((1′,5′,6′,7′-tetrahydro-2′H-spiro[cyclopropane-1,3′-dicyclopenta[b,e]pyridin]-8′-yl)carbamoyl)thiazole-2-sulfonimidamide]: the IC50 fell in the range of 5 to 30 µM.
Consider `Cc1c(C(F)(F)F)nc2c(c1NC(=O)N=S(N)(=O)c1cnc(C(C)(C)O)s1)CCC2` (single isomer, unassigned) [Compound 661a, (R) or (S)-2-(2-Hydroxypropan-2-yl)-N′-((3-methyl-2-(trifluoromethyl)-6,7-dihydro-5H-cyclopenta[b]pyridin-4-yl)carbamoyl)thiazole-5-sulfonimidamide], for which the 50% inhibitory concentration (IC50) is 0.2 to 1 µM.
On the same count and under the same terms, next, `Cc1cc(S(N)(=O)=NC(=O)Nc2c3c(nc4c2CCC4)CCC3)sc1C(C)(C)O` (single isomer, unassigned) [Compound 692b, (R) or (S)-N′-((1,2,3,5,6,7-hexahydrodicyclopenta [b,e]pyridin-8-yl)carbamoyl)-5-(2-hydroxypropan-2-yl)-4-methylthiophene-2-sulfonimidamide]: 1 to 5 µM.

The assay is the same for the next values; noted with them: Table B3; hTHP-1 assay, 2% fetal bovine serum; class symbols; read-out: IC50.
Take `CCc1c(C(F)(F)F)nc2c(c1NC(=O)N=S(N)(=O)c1nn(C(F)F)cc1F)CCC2` (single isomer, unassigned) [Example 709, (R) or (S)-1-(difluoromethyl)-N′-((3-ethyl-2-(trifluoromethyl)-6,7-dihydro-5H-cyclopenta[b]pyridin-4-yl)carbamoyl)-4-fluoro-1H-pyrazole-3-sulfonimidamide]: the IC50 lay in the range of 1 to 5 µM.
Same read-out and setting: in the case of `CC1(C)CCc2c1nc1c(c2NC(=O)N=S(N)(=O)c2nn(C(F)F)cc2F)CCC1` (single isomer, unassigned) [Example 722, (S) or (R)-1-(difluoromethyl)-N′-((3,3-dimethyl-1,2,3,5,6,7-hexahydrodicyclopenta[b,e]pyridin-8-yl)carbamoyl)-4-fluoro-1H-pyrazole-3-sulfonimidamide] it was 1 to 5 µM.
Consider `CCn1ccc(S(N)(=O)=NC(=O)Nc2c3c(nc4c2CCC42CC2)CCC3)n1` (single isomer, unassigned) [Example 688, (S) or (R)-1-Ethyl-N′-((1′,5′,6′,7′-tetrahydro-2′H-spiro[cyclopropane-1,3′-dicyclopenta[b,e]pyridin]-8′-yl)carbamoyl)-1H-pyrazole-3-sulfonimidamide], for which the IC50 was in the range of 5 to 30 µM.

The assay is the same for the next values; noted with them: Table B4; 2% fetal bovine serum; class symbols; read-out: hTHP-1 IC50.
`Cc1c(C(F)(F)F)nc2c(c1NC(=O)N=S(N)(=O)c1nn(-c3ccccc3)cc1F)CCC2` (single isomer, unassigned) [Example 783, (R) or (S)-4-fluoro-N′-((3-methyl-2-(trifluoromethyl)-6,7-dihydro-5H-cyclopenta [b]pyridin-4-yl)carbamoyl)-1-phenyl-1H-pyrazole-3-sulfonimidamide]: the IC50 lay in the range of 1 to 5 µM.
